Reference: patent publication US9913838B2, “Methods of treating cancer using compositions comprising perillyl alcohol derivative” (NEONC TECHNOLOGIES INC., priority 2010, dated 2018)

How the values were obtained:
[1] = test system: A172 human glioma cells; experiment: MTT cytotoxicity assay, A172 glioma cells; conditions: A172; result in words
Description: In vitro efficacy of the present composition can be determined using methods well known in the art. For example, the cytoxicity of the present monoterpene (or sesquiterpene) and/or the therapeutic agents may be studied by MTT [3-(4,5-dimethylthiazol-2-yl)-2,5-diphenyl tetrazolium bromide] cytotoxicity assay. MTT assay is based on the principle of uptake of MTT, a tetrazolium salt, by metabolically active cells where it is metabolized into a blue colored formazon product, which can be read spectrometrically. J. of Immunological Methods 65: 55 63, 1983. The cytoxicity of the present monoterpene (or sesquiterpene) derivative and/or the therapeutic agents may be studied by colony formation assay. Functional assays for inhibition of VEGF secretion and IL-8 secretion may be performed via ELISA. Cell cycle block by the present monoterpene (or sesquiterpene) derivative and/or the therapeutic agents may be studied by standard propidium iodide (PI) staining and flow cytometry. Invasion inhibition may be studied by Boyden chambers. In this assay a layer of reconstituted basement membrane, Matrigel, is coated onto chemotaxis filters and acts as a barrier to the migration of cells in the Boyden chambers. Only cells with invasive capacity can cross the Matrigel barrier. Other assays include, but are not limited to cell viability assays, apoptosis assays, and morphological assays.
First cytotoxicity assays were carried out after cells were treated with dimethyl-celecoxib (DMC) alone.
Then U87, A172 and U251 cells were treated with dimethyl celecoxib bisPOH carbamate (POH−DMC) (e.g., synthesized by the method in Example 1), and the MTT cytotoxicity assays performed (FIG. 2).
First cytotoxicity assays were carried out after cells were treated with temozolomide (TMZ) alone, the standard alkylating agent used in the treatment of malignant gliomas.
Then TMZ-resistant glioma cell lines U87, A172 and U251 cells were treated with TMZ-POH (e.g., synthesized by the method in Example 3).
To compare the cytotoxicity of Rolipram POH Carbamate (POH-Rolipram) (e.g., synthesized by the method in Example 5) with rolipram, […] inducing differentiation and apoptosis in glioma cells, A172, U87, U251 and LN229 human glioma cells were treated with either POH-Rolipram or rolipram for 48 hours.

[2] = test system: USC-02 glioma cancer stem cells; experiment: MTT cytotoxicity assay, USC-02 glioma cancer stem cells; assay type: cell-based
Description: Cancer Lett. 2011 Mar. 28; 302(2):100-8.

[3] = test system: T47D; experiment: Colony formation assay, T47D; assay type: cell-based, human; conditions: for IC50: Homo sapiens, 48 h, read-out: IC50 (concentration required to decrease colony formation by 50%)
Procedure: (§1) Depending on the cell line (and plating efficiency), 200-350 cells were seeded into each well of a 6-well plate. […] Thereafter, the drugs were removed, fresh growth medium was added, and the cells were kept in culture undisturbed for 12-16 days, during which time the surviving cells spawned colonies of descendants. Colonies (defined as groups of >50 cells) were visualized by staining for 4 hours with 1% methylene blue (in methanol), and then were counted.
(§2) The cytotoxic potency of TMZ-POH, was analyzed by colony formation assay (CFA) in a variety of human breast cancer cell lines and compared to the cytotoxicity of TMZ. We used estrogen receptor positive cells MCF7 and T47D, the triple-negative lines MDA-MB-231, MDA-MB-468, and HCC-1937, and a brain-seeking variant of the 231 cell line, MDA-MB-231-br.

[4] = test system: HCC-1937; experiment: Colony formation assay, HCC-1937; assay type: cell-based, human; conditions: for IC50: Homo sapiens, HCC1937, 48 h, read-out: IC50 (concentration required to decrease colony formation by 50%)
Procedure: as §1, §2

[5] = test system: MCF7; experiment: Colony formation assay, MCF7; conditions: for IC50: Homo sapiens, MCF7, 48 h, read-out: IC50 (concentration required to decrease colony formation by 50%)
Procedure: as §1
In the case of O6-BG treatment, cells were pretreated with 10 μM O6-BG for one hour before addition of TMZ or TMZ-POH. After 24 hours, another 10 μM O6-BG was added to the medium. Another 24 hours later, drug-laced medium was removed, and fresh medium without drugs was added. Thereafter, cells remained undisturbed until staining with methylene blue.
as §2

[6] = test system: D3H2LN cells implanted into the brains; experiment: Intracranial breast cancer tumor model in nude mice; assay type: in vivo; conditions: for median survival: TMZ-POH s.c., TMZ via gavage
Description: In FIG. 27A, all surviving animals were imaged again on days 21, 28, and 36. […] Arrow labeled Rx indicates the time period of treatment.
All animal protocols were approved by the Institutional Animal Care and Use Committee (IACUC) of University of Southern California, and all rules and regulations were followed during experimentation on animals. Athymic mice (Harlan, Inc., Indianapolis, Ind.) were implanted intracranially with 2×10^5 cells. A subline of MDA-MB-231 cells called D3H2LN was used, which was transfected with the firefly luciferase gene and had been selected for aggressive growth and metastasis in vivo. Ten days after intracranial implantation, efficient tumor take was confirmed in all animals via non-invasive whole-body bioluminescent imaging. For this purpose, mice were intravenously injected with 50 mg/kg D-Luciferin (Perkin Elmer, Waltham, Mass.) and imaged using the Xenogen IVIS-200 Imaging System (Caliper/Perkin Elmer). Images were analyzed by region-of-interest (ROI) analysis using the Living Image software package (Caliper/Perkin Elmer) to quantitate light output (radiance, i.e., photons per second per square centimeter per steradian).
Group 1 was the control group that received vehicle only (45% glycerol, 45% ethanol, 10% DMSO) via subcutaneous injection. Group 2 was the experimental group that received 25 mg/kg TMZ-POH via subcutaneous (s.c.) injection. Group 3 was the comparison group and animals received 25 mg/kg TMZ via gavage. Treatment was once per day for a period of 10 days (i.e., 10 treatments total). Thereafter, all surviving animals were imaged again, once per week.
We used D3H2LN cells, which are a bioluminescent variant of the MDA-MB-231 cell line with aggressive tumor growth in mice. These cells were implanted into the brains of nude mice, and 10 days later all animals were imaged for luciferase expression in order to confirm efficient tumor take.
Animals were distributed into three groups and treated once daily for 10 days with vehicle alone (control), 25 mg/kg TMZ-POH, or 25 mg/kg TMZ.

[7] = 25 mg/kg once daily for 10 days
[8] = low micromolar concentrations, 48 hours, in words

| SMILES | cytotoxicity (MTT assay) [1] | cytotoxicity (MTT assay) ([2]; TMZ 0-400 uM, POH 0-2 mM, in words) | IC50 ([3]; T47D) [µM] | IC50 [4] [µM] | IC50 [5] [µM] | additional survival after the termination of treatment [6, 7] [days] | median survival [6, 7] [days] | IC50 ([2]; read-out: cytotoxicity with 1050) [µM] | Differential (−fold) ([3]; fold increase in potency of TMZ-POH compared to TMZ, T47D) | colony formation (CFA) [3, 8] | Differential (−fold) ([4]; fold increase in potency of TMZ-POH compared to TMZ, HCC-1937) | colony formation (CFA) [4, 8] | Differential (−fold) ([5]; fold increase in potency of TMZ-POH compared to TMZ, MCF7) | colony formation (CFA) [5, 8] | status of animals by day 36 ([6]; 25 mg/kg once daily for 10 days, in words) | bioluminescent imaging after 10-day treatment period ([6]; 25 mg/kg once daily, in words) | increase of ROI radiance ([6]; between days 10 and 21, representative mouse, 25 mg/kg once daily 10 days) [fold] | ROI radiance ([6]; day 10, representative mouse) | ROI radiance ([6]; day 21, representative mouse) | ROI radiance ([6]; day 43, representative mouse) |
| --- | --- | --- | --- | --- | --- | --- | --- | --- | --- | --- | --- | --- | --- | --- | --- | --- | --- | --- | --- | --- |
| Cn1nnc2c(C(N)=O)ncn2c1=O [TMZ, temozolomide, reference compound] | minimal cytotoxicity | did not induce significant cytotoxicity | 20 | 186 | 513 | 8 | 28 | – | – | – | – | – | – | – | – | – | – | – | – | – |
| C=C(C)[C@@H]1CC=C(COC(=O)NC(=O)c2ncn3c(=O)n(C)nnc23)CC1 [TMZ-POH] | substantially higher kill rates | – | 4.6 | 31 | 33 | 30 | 50 | 60 | 4.3 −fold | prevented colony formation | 6.0 −fold | prevented colony formation | 15.5 −fold | prevented colony formation | still alive with no obvious signs of distress | only small changes in radiance | 1.7 | 1.11E7 photons per second per square | 1.92E7 photons per second per square | 1.88E8 photons per second per square |
